This note sets out measurements from patent US10421944B2, “Method for producing neural stem cells using synthetic peptide” (TOAGOSEI CO. LTD., priority 2015, dated 2019).

The assay deals with CCD1079SK cells (fibroblasts from human skin tissue). As to the kind of experiment: Test to evaluate neural stem cell-inducing activity (fluorescent immunostaining of nestin and GFAP in fibroblasts). The format is cell-based. The following applies: peptide 10 μM, 18 days of culture at 30° C., compared with peptide-free group. Here is the method: Neural stem cells were induced (prepared) from fibroblasts using the neural stem cell-inducing synthetic peptide (Sample 1) obtained in Example 1 above. The test cells were CCD1079SK cells (ATCC™ CRL-2097), a cultured cell line of fibroblasts from human skin tissue. The test details were as follows.
Previously frozen CCD1079SK cells were seeded to a cell density of 1.2×10^5/well in a cell culture chamber (also called a slide chamber). The cell culture chamber had one well per slide (culture area 19 mm×44 mm). Specifically, the thawed CCD1079SK cells were suspended in ordinary Dulbecco's modified Eagle's medium (DMEM) to prepare a cell suspension with a cell density of 1.2×10^5/mL, and 1 mL of this cell suspension was seeded in the aforementioned cell culture chamber. The DMEM medium was ordinary DMEM (Wako Pure Chemical Industries, Ltd., Cat. No. 043-30085) with 10% FBS, 100 units/mL penicillin and 100 μg/mL streptomycin added thereto. The CCD1079SK cells seeded in the cell culture chamber were pre-cultured for several hours (about six hours) until the cells adhered to the bottom of the culture container in the incubator under conditions of 5% CO2, 37° C. […]

As for LLLLLLVGLTAPAGKKRTLRKNDRKKR [Sample 1], the “expression of neural stem cell marker protein nestin (cells with increased quantities of nestin protein)” value (confocal laser microscopy (FIG. 1 vs FIG. 3)) is “more cells with increased quantities of nestin protein”. The “expression of neural stem cell marker protein GFAP (cells with increased quantities of GFAP)” value (confocal laser microscopy (FIG. 2 vs FIG. 4)) was “more cells with increased quantities of nestin protein and GFAP”.
